Literature values, collected in patent US9993449B2, “(S)-3-amino-4-(difluoromethylenyl)cyclopent-1-ene-1-carboxylic acid, and related compounds as GABA aminotransferase inactivators for the treatment of epilepsy, addiction and hepatocellular carcinoma” (NORTHWESTERN UNIVERSITY, priority 2015, dated 2018).

How the values were obtained:
striatal dopamine levels = conditions: previous similar tests; cited from earlier work
[1] = test system: glucose metabolism in the hippocampus; conditions: previous similar tests; cited from earlier work
cocaine addiction = cocaine addiction in humans, 9-week double-blind trial; cited from earlier work
[2] = long-term administration; cited from earlier work
addiction = conditions: cocaine, nicotine, methamphetamine, heroin, and alcohol; cited from earlier work
[3] = test system: aspartate aminotransferase (Asp-AT); conditions: reported; cited from earlier work
[4] = test system: alanine aminotransferase (Ala-AT); conditions: reported; cited from earlier work
[5] = target: T1, ornithine aminotransferase (OAT) (Homo sapiens, UniProt P04181); conditions: reported; cited from earlier work
T1 sequence (P04181 26-439): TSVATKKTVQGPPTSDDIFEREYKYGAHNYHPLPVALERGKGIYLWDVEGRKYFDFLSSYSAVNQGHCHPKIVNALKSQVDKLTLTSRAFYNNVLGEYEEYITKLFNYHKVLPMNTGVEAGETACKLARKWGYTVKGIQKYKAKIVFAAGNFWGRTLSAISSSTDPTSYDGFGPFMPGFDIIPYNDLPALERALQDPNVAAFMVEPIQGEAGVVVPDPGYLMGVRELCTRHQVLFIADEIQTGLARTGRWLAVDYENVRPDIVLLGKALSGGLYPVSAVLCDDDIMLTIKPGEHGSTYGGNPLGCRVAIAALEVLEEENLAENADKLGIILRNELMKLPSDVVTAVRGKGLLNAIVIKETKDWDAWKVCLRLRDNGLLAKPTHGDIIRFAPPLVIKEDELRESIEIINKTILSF

hERG channel = target: T2, hERG channel (Homo sapiens, UniProt Q12809); conditions: earlier finding for CPP-115; cited from earlier work
T2 construct: host or cells: CHO-K1

CYP1A = target: T3, CYP1A (Homo sapiens, UniProt P05177); conditions: earlier finding for CPP-115; cited from earlier work
T3 construct: tissue Eurofins Panlabs; host or cells: human liver microsomes
T3 sequence (P05177 1-516): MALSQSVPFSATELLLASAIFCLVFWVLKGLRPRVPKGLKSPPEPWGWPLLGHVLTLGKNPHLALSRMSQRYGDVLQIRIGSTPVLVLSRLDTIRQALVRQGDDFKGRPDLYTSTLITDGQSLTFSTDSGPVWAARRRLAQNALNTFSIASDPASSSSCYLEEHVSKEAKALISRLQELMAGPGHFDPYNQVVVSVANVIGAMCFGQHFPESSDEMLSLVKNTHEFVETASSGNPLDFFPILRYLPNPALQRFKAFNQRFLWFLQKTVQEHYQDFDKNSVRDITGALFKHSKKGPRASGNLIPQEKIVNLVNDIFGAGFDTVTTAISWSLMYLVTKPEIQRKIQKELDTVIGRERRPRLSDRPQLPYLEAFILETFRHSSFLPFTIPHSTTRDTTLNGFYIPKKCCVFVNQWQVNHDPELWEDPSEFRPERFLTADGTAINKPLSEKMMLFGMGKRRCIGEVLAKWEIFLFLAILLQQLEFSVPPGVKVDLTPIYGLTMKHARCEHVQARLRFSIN

CYP2B6 = target: T4, CYP2B6 (Homo sapiens, UniProt P20813); conditions: earlier finding for CPP-115; cited from earlier work
T4 construct: tissue Eurofins Panlabs; host or cells: human liver microsomes
T4 sequence (P20813 1-491): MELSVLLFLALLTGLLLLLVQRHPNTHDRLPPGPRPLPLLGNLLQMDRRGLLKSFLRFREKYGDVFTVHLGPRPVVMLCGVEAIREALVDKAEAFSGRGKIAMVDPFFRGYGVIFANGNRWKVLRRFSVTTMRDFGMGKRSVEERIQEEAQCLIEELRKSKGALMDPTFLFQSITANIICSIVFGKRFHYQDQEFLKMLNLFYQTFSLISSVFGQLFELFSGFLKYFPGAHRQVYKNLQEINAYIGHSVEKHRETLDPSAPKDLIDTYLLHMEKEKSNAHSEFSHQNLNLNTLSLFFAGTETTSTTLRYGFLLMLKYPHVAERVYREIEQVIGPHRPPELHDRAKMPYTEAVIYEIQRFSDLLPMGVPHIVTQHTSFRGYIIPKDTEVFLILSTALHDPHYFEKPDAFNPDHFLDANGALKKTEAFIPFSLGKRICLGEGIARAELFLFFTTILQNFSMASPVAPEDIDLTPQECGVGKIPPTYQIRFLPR

CYP2C8 = target: T5, CYP2C8 (Homo sapiens, UniProt P10632); conditions: earlier finding for CPP-115; cited from earlier work
T5 construct: tissue Eurofins Panlabs; host or cells: human liver microsomes
T5 sequence (P10632 1-490): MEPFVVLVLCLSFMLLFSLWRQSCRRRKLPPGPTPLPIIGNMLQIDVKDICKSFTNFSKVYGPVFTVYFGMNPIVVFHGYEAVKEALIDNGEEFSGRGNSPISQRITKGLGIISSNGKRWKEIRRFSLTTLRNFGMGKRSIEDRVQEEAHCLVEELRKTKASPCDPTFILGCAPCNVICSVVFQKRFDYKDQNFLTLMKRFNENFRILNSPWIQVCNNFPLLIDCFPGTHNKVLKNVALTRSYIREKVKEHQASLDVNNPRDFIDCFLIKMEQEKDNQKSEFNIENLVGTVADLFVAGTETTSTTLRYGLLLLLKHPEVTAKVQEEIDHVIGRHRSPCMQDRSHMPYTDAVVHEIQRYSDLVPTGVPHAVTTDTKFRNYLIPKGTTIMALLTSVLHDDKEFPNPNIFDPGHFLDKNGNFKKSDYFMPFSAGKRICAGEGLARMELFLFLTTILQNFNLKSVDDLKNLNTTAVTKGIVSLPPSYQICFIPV

CYP2C9 = target: T6, CYP2C9 (Homo sapiens, UniProt P11712); conditions: earlier finding for CPP-115; cited from earlier work
T6 construct: tissue Eurofins Panlabs; host or cells: human liver microsomes

CYP2C19 = target: T7, CYP2C19 (Homo sapiens, UniProt P33261); conditions: earlier finding for CPP-115; cited from earlier work
T7 construct: tissue Eurofins Panlabs; host or cells: human liver microsomes

CYP2D6 = target: T8, CYP2D6 (Homo sapiens, UniProt P10635); conditions: earlier finding for CPP-115; cited from earlier work
T8 construct: tissue Eurofins Panlabs; host or cells: human liver microsomes

CYP3A = conditions: earlier finding for CPP-115; cited from earlier work
infantile spasms = conditions: multiple-hit rat model; cited from earlier work
[6] = in vivo; cited from earlier work
[7] = test system: release of dopamine in the NAcc; conditions: freely moving rats after 20 mg/kg cocaine; cited from earlier work

T7 sequence (P33261 whole entry): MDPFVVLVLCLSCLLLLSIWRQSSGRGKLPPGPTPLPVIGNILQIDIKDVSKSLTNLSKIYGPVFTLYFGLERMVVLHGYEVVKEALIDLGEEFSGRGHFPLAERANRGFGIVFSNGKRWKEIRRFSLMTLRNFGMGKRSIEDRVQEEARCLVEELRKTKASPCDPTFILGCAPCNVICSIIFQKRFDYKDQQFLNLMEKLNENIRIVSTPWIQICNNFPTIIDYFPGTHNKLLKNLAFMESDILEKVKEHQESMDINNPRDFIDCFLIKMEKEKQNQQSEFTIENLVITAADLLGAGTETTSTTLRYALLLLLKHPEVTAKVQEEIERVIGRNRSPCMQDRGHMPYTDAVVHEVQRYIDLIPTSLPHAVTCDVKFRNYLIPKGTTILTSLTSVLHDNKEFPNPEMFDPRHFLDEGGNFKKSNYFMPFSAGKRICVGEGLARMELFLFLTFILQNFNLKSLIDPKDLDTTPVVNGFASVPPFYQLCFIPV
T8 sequence (P10635 whole entry): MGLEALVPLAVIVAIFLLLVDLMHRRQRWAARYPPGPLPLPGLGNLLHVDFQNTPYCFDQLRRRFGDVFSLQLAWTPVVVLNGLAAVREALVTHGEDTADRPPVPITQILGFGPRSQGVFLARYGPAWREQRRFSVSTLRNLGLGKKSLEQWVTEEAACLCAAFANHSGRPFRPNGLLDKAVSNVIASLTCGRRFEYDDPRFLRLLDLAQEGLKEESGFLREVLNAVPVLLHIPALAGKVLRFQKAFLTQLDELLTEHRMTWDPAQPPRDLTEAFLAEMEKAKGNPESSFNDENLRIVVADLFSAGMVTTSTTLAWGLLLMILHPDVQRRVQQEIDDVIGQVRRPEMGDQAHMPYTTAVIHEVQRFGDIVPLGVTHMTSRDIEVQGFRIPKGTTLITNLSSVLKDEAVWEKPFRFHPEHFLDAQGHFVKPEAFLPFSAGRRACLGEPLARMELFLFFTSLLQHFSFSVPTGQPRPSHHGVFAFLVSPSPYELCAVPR
T2 sequence (Q12809 whole entry): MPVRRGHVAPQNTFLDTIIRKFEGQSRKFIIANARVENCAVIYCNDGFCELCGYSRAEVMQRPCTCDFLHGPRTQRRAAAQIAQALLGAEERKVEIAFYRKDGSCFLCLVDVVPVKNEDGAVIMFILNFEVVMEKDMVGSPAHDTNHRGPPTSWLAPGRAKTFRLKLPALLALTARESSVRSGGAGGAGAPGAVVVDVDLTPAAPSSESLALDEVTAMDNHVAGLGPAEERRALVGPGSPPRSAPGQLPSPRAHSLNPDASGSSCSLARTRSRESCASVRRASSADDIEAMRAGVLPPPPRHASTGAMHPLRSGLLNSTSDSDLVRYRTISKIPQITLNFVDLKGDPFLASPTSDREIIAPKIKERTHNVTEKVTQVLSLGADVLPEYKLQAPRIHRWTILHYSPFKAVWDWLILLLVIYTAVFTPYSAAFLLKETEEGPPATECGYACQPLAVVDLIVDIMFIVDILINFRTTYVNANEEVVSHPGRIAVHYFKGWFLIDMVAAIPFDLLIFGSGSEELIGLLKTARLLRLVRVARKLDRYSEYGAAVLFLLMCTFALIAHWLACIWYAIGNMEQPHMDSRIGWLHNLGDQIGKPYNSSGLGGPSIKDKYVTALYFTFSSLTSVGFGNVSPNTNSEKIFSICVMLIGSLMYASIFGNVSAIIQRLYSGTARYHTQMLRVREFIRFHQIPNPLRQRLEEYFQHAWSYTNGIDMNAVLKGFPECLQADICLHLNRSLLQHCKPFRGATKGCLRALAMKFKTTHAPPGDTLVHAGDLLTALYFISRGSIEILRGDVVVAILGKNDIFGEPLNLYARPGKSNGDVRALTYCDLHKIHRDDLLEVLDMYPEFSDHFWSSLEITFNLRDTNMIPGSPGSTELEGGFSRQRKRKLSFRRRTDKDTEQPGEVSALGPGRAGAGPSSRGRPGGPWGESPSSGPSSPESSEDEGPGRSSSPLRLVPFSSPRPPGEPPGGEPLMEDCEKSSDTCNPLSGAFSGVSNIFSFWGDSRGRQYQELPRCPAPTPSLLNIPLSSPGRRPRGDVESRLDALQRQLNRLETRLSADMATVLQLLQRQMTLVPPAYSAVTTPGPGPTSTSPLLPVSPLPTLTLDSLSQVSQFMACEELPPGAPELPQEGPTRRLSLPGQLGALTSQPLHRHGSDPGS
T6 sequence (P11712 whole entry): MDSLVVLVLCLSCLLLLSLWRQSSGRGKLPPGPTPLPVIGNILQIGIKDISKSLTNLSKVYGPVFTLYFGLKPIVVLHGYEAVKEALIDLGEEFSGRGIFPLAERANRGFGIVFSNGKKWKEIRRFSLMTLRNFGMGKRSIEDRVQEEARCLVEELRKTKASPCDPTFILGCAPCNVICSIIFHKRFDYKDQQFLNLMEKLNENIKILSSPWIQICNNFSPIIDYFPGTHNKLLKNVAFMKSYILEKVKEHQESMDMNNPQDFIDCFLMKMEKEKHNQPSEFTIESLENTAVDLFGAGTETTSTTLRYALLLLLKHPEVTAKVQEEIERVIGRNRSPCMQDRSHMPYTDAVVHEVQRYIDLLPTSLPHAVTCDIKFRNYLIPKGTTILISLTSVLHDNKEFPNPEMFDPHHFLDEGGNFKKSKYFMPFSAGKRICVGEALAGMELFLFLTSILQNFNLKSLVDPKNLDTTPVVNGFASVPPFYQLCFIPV

## C=CC(N)CCC(=O)O (stereo not shown) [vigabatrin]
Striatal dopamine levels
  cocaine-induced increases in striatal dopamine: blocked
[1]
  hippocampal metabolism (cocaine-induced): did not completely block
Cocaine addiction
  patients achieving abstinence: up to 28%
[2]
  epilepsy patients with permanent vision loss: 25-40%
addiction
  treatment of addiction in animal models: successful

## N[C@H]1C[C@@H](C(=O)O)CC1=C(F)F [CPP-115, (1S,3S)-3-amino-4-difluoromethylenyl-1-cyclopentanoic acid]
[3]
  inactivation or inhibition of Asp-AT: not to inactivate or inhibit
[4]
  inactivation or inhibition of Ala-AT: not to inactivate or inhibit
[5]
  KI (inactivation): 116 µM
hERG channel
  inhibition of the activity of the hERG channel: does not inhibit
CYP1A
  inhibition or induction of CYP 1A: does not inhibit or induce
CYP2B6
  inhibition or induction of CYP 2B6: does not inhibit or induce
CYP2C8
  inhibition or induction of CYP 2C8: does not inhibit or induce
CYP2C9
  inhibition or induction of CYP 2C9: does not inhibit or induce
CYP2C19
  inhibition or induction of CYP 2C19: does not inhibit or induce
CYP2D6
  inhibition or induction of CYP 2D6: does not inhibit or induce
CYP3A
  inhibition or induction of CYP 3A: does not inhibit or induce
Striatal dopamine levels
  cocaine-induced increases in striatal dopamine: blocked
[1]
  hippocampal metabolism (cocaine-induced): did not completely block
Infantile spasms
  duration of spasm suppression versus vigabatrin: longer spasm suppression
[6]
  margin of safety versus vigabatrin: much larger
  retinal toxicity liability versus vigabatrin: considerably lower
[7]
  times more potent than vigabatrin in reducing the release of dopamine in the NAcc: > 300 times
